Patent EP2966448B1, “METHOD FOR THE PREDICTION OR PROGNOSIS OF THE RESPONSE OF A HUMAN SUBJECT SUFFERING FROM CANCER TO TREATMENT WITH AN ANTAGONIST OF THE NK1 RECEPTOR” (priority 2013, dated 2014)
Where two headings read alike, the source gives them in different places.

What was measured:
Prostate carcinoma = assay: cells; details: Homo sapiens, 1 micromolar
Description: (§1) Cell cultures. To obtain tumor cells from human primary tumors we used the method described in De Bari et al. (De Bari et al. 2001). Briefly, small pieces of the tumors were digested into a hyaluronidase solution (Sigma-Aldrich, USA) at a concentration of 1 mg/ml during 15 minutes at 37°C, and then they were treated with 6 mg/ml of collagenase type IV (Invitrogen) during 2 hours at 37°C. Consecutively, cells were washed, and resuspended in the DMEM culture medium with high concentration of glucose (Dulbecco's Modified Eagle's Medium, Invitrogen) supplemented with 1% of antibiotics-antimycotics (Invitrogen) and with 1% of sodium pyruvate (Invitrogen), and the cells were seeded in culture slides at a concentration of 10.000 cells per square centimeter. When cells reached confluence, the adherent cells were separated using sterile trypsin at 0,5% (Invitrogen) and they were used among passages 3 and 9. For the assays shown next, tumor cells were seeded on slides at a concentration of 25.000 cells per well. A total of 6 wells containing the tumor cells were used as survival control. […] All the cultures were kept during 48 hours and later on recollected for their analysis.
(§2) Immunohistochemistry techniques. The presence of NK1 receptors was also analyzed using immunohistochemistry techniques. Briefly, a sample of each of the cultures of the cell lines used in the present invention, was centrifuged (5 minutes at 1.500 rpm) and the pellet obtained was dehydrated using increasing concentrations of ethanol and, finally, xylol. Then, said dehydrated samples were embedded in paraffin, creating a block of cells. Such paraffin blocks were cut with a microtome at 5 microns thickness, and were placed on microscope slides adequate to perform immunohistochemistry techniques. Consecutively, they were de-paraffinized by immersing them in xylol, to be finally hydrated using a solution containing decreasing concentrations of ethanol, and finally submerged them into water. […] After this, the samples were left to cool down at room temperature for 10 minutes. The endogenous peroxidase activity was blocked with 3% peroxide of hydrogen for 30 minutes at room temperature. After washing the samples with 0.05 M of Tris buffer, they were incubated with 10% non-immune pork serum at for 30 minutes at room temperature. To analyze the expression of NK1 receptors, the cellular samples were incubated in the presence of anti-NK1 antibodies (S8305, Sigma-Aldrich) diluted 1:1000, overnight at 4°C. Afterwards, the samples were washed in Tris buffer 0.05 M at room temperature. The next step was the addition of Envision System-HRP (Dako) reagents for 30 minutes at room temperature. Then, the samples were washed again in Tris buffer 0.05 M and the immunoreactivity was visualized through light microscopy with a chromogenic solution containing 3,3'-Diaminobenzidine (DAB+; Dako, USA). To differentiate the cell nuclei, they were slightly stained with hematoxylin. As negative control, it was used samples not incubated with the primary antibody anti-NK1, which was replaced by non-immune serum. All the samples were evaluated.
(§3) To value the immunostaining in each of the cases six cuts were performed to be analyzed by the immunohistochemistry technique. In each of the six cuts, it was counted cells in 20 fields (magnification 400x) using an Olympus microscope (model CX31). In each field it was counted the total number of cells and the number of cells presenting immunostaining, calculating afterwards the percentage of cells which presented immunostaining.

[1] = test system: Lung carcinoma (small cell lung carcinoma); assay: Inhibition of primary tumor cell cultures vs Kras mutation (Example 2); type: cell-based, human; details: Homo sapiens, Cases with Kras mutated; 100 micromolar; read-out: Percentage of inhibition of cell cultures
Description: (§4) To obtain tumor cells from human primary tumors we used the method described in De Bari et al. (De Bari et al. 2001). Briefly, small pieces of the tumors were digested into a hyaluronidase solution (Sigma-Aldrich, USA) at a concentration of 1 mg/ml during 15 minutes at 37°C, and then they were treated with 6 mg/ml of collagenase type IV (Invitrogen) during 2 hours at 37°C. Consecutively, cells were washed, and resuspended in the DMEM culture medium with high concentration of glucose (Dulbecco's Modified Eagle's Medium, Invitrogen) supplemented with 1% of antibiotics-antimycotics (Invitrogen) and with 1% of sodium pyruvate (Invitrogen), and the cells were seeded in culture slides at a concentration of 10.000 cells per square centimeter. When cells reached confluence, the adherent cells were separated using sterile trypsin at 0,5% (Invitrogen) and they were used among passages 3 and 9. For the assays shown next, tumor cells were seeded on slides at a concentration of 25.000 cells per well. A total of 6 wells containing the tumor cells were used as survival control. […] All the cultures were kept during 48 hours and later on recollected for their analysis.
(§5) In each case the presence or not of mutations in K-ras gene was determined.
(§6) To determine the existence of mutations in the K-ras gene DNA from cancer tumor cells was extracted from samples obtained from the different cancer tumor cells, using DNA extraction kits from Takara (Madison, WI, US) or Ambion (Huntingdon, Cambridgeshire, United Kingdom), following the manufacturer's instructions, and as it has been previously published (Di Fiore F, et al. 2007). Consecutively it was analyzed by sequencing the exon 2 of the KRAS gene, , by means of PCR amplification from previously extracted cancer tumor DNA, using the following sense primer (SEQ ID NO. 15): 5'-[sequence]-3' and anti-sense primer (SEQ ID NO. 16): 5'-[sequence]-3'. After the purification using the Qiagen extraction kit, the PCR products were sequenced using the Big Dye Terminator Kit V3.1 (Applied Biosystems, Foster City, CA, U.S.) and an ABI Prism 377 or 3100 DNA sequencer (Applied Biosystems). The presence of a heterozygous mutation in the KRAS gene in cancer tumor cells of the cultures was defined as the appearance of a mutant peak of a height of at least a third of the wild type. All the sequence analysis were executed at least twice in two independent PCR.
(§7) The antibody against NK1 receptor (Table 16) was used at 1/50 concentration. The percentages of inhibition are expressed in percentage of variation in relation to control ± standard deviation.

[2] = test system: Melanoma (Nodular Melanoma); assay: as above; type: cell-based, human; details: Homo sapiens, Cases with Kras mutated; 100 micromolar; read-out: Percentage of inhibition of cell cultures
Description: as §1, §5, §6
The percentages of inhibition are expressed in percentage of variation in relation to control ± standard deviation.

Renal cell carcinoma = assay: Inhibition of primary tumor cell cultures (48 hours) vs NK1 receptor immunostaining (Example 1); type: cell-based; details: Homo sapiens, 1 micromolar, read-out: Percentage of inhibition of cell cultures
Description: as §1, §2, §3

Non Hodgkin Lymphoma B = assay: as above; type: cell-based; details: Homo sapiens, 1 micromolar, read-out: Percentage of inhibition of cell cultures
Description: as §1, §2, §3

Gastric carcinoma = assay: as above; type: cell-based; details: Homo sapiens, 1 micromolar, read-out: Percentage of inhibition of cell cultures
Description: as §1, §2, §3

[3] = test system: Lung carcinoma (small cell type); assay: as above; type: cell-based; details: Homo sapiens, 1 micromolar, read-out: Percentage of inhibition of cell cultures
Description: as §1, §2, §3

[4] = test system: Lung carcinoma (non small cell lung carcinoma); assay: Inhibition of primary tumor cell cultures vs Kras mutation (Example 2); type: cell-based, human; details: Homo sapiens, Cases with Kras mutated; 100 micromolar; read-out: Percentage of inhibition of cell cultures
Description: as §4, §5, §6, §7

Fibrosarcoma = assay: Inhibition of primary tumor cell cultures (48 hours) vs NK1 receptor immunostaining (Example 1); type: cell-based; details: Homo sapiens, 1 micromolar, read-out: Percentage of inhibition of cell cultures
Description: as §1, §2, §3

Neuroblastoma = assay: as above; type: cell-based; details: Homo sapiens, 1 micromolar, read-out: Percentage of inhibition of cell cultures
Description: as §1, §2, §3

[5] = test system: Breast carcinoma (ductal adenocarcinoma); assay: Inhibition of primary tumor cell cultures vs Kras mutation (Example 2); type: cell-based, human; details: Homo sapiens, Cases with Kras mutated; 100 micromolar; read-out: Percentage of inhibition of cell cultures
Description: (§8) Cell cultures. […] Briefly, small pieces of the tumors were digested into a hyaluronidase solution (Sigma-Aldrich, USA) at a concentration of 1 mg/ml during 15 minutes at 37°C, and then they were treated with 6 mg/ml of collagenase type IV (Invitrogen) during 2 hours at 37°C. Consecutively, cells were washed, and resuspended in the DMEM culture medium with high concentration of glucose (Dulbecco's Modified Eagle's Medium, Invitrogen) supplemented with 1% of antibiotics-antimycotics (Invitrogen) and with 1% of sodium pyruvate (Invitrogen), and the cells were seeded in culture slides at a concentration of 10.000 cells per square centimeter. When cells reached confluence, the adherent cells were separated using sterile trypsin at 0,5% (Invitrogen) and they were used among passages 3 and 9. For the assays shown next, tumor cells were seeded on slides at a concentration of 25.000 cells per well. A total of 6 wells containing the tumor cells were used as survival control. […] All the cultures were kept during 48 hours and later on recollected for their analysis.
as §5, §6, §7

[6] = test system: Thyroid carcinoma (papillary carcinoma); assay: as above; type: cell-based, human; details: Homo sapiens, Cases with Kras mutated; 100 micromolar; read-out: Percentage of inhibition of cell cultures
Description: as §4, §5, §6, §7

[7] = test system: Thyroid carcinoma (papillary type); assay: Inhibition of primary tumor cell cultures (48 hours) vs NK1 receptor immunostaining (Example 1); type: cell-based; details: Homo sapiens, 1 micromolar, read-out: Percentage of inhibition of cell cultures
Description: as §1, §2, §3

Breast carcinoma = assay: as above; type: cell-based; details: Homo sapiens, 1 micromolar, read-out: Percentage of inhibition of cell cultures
Description: as §1, §2, §3

Endometrium carcinoma = assay: cells; details: Homo sapiens, 1 micromolar
Description: as §1, §2, §3

[8] = test system: human primary tumor cells; assay: Inhibition of primary tumor cell cultures vs amplification of the gene encoding the NK1 receptor (Example 6; tumor type per table line); type: cell-based; details: Non Hodgkin Lymphoma T (diffuse T cell lymphoma); Cases with amplification of the gene that encodes for the NK1 receptor; 100 micromolar
Description: as §8
The presence or absence of the amplification of the gene encoding for the NK1 receptor was determined, and then the cells were cultured in the presence of several antagonists of the NK1 receptor.
For each case, the presence or absence of amplification of the gene encoding for the NK1 receptor was determined.
In order to determine the presence of the amplification (increase in the number of copies) of the gene encoding the NK1 receptor (TAC1R), it was used the comparative genomic hybridization technique (CGH Array). Firstly genomic DNA was extracted from each case. Later, it was performed the marking and hybridization of the DNA of each sample together with DNA of a commercial reference without genomic alterations (from masculine or feminine sex, depending on the gender of the patient from whom the samples were obtained). The Array is Sureprint G3 Human CGH Microarray from the company Agilent was used, with an average separation between probes of 5.3Kb and 4.6Kb for the genes RefSeq. The reading of the microarray was done with the DNA Microarray Scanner G2565CA from Agilent, at a resolution of 3 µm. The analysis of the results was performed with the software Cytogenomics v 2.0.6.0 from Agilent with ADM-2: 6.0; Centralization: ON (Threshold: 6.0, Bin size: 10); Fuzzy zero: ON; Aberration filters: ON (minProbes=5 and minAvgAbsLopRatio= 0,5); Feature Level Filters : ON. The genomic coordinates are coincident with the NCBI36genome (hg18). Cases were distributed in two groups: Group I for those cases without the amplification of the gene encoding the NK1 receptor (locus 2p13.1-p12), and Group II for those cases with amplification of the gene encoding the NK1receptor (locus 2p13.1-p12).
The antibody against NK1 receptor (Table 36) was used at 1/50 concentration. The percentages of inhibition are expressed in percentages of variation in relation to control ± standard deviation.

Hodgkin lymphoma = assay: Inhibition of primary tumor cell cultures (48 hours) vs NK1 receptor immunostaining (Example 1); type: cell-based; details: Homo sapiens, 1 micromolar, read-out: Percentage of inhibition of cell cultures
Description: as §1, §2, §3

[9] = test system: Urinary bladder carcinoma (transitional cell carcinoma); assay: Inhibition of primary tumor cell cultures vs Kras mutation (Example 2); type: cell-based, human; details: Homo sapiens, Cases with Kras mutated; 100 micromolar; read-out: Percentage of inhibition of cell cultures
Description: as §4, §5, §6, §7

[10] = test system: Thyroid carcinoma (folliculary type); assay: Inhibition of primary tumor cell cultures (48 hours) vs NK1 receptor immunostaining (Example 1); type: cell-based; details: Homo sapiens, 1 micromolar, read-out: Percentage of inhibition of cell cultures
Description: as §1, §2, §3

[11] = test system: Gastric carcinoma (Adenocarcinoma); assay: Inhibition of primary tumor cell cultures vs Kras mutation (Example 2); type: cell-based, human; details: Homo sapiens, Cases with Kras mutated; 100 micromolar; read-out: Percentage of inhibition of cell cultures
Description: as §8, §5, §6, §7

Colon carcinoma = assay: Inhibition of primary tumor cell cultures (48 hours) vs NK1 receptor immunostaining (Example 1); type: cell-based; details: Homo sapiens, 1 micromolar, read-out: Percentage of inhibition of cell cultures
Description: as §1, §2, §3

Leukemia B = assay: as above; type: cell-based; details: Homo sapiens, 1 micromolar, read-out: Percentage of inhibition of cell cultures
Description: as §1, §2, §3

[12] = test system: Ovarian carcinoma (Adenocarcinoma); assay: Inhibition of primary tumor cell cultures vs Kras mutation (Example 2); type: cell-based, human; details: Homo sapiens, Cases with Kras mutated; 100 micromolar; read-out: Percentage of inhibition of cell cultures
Description: as §8, §5, §6, §7

[13] = read-out: Percentage of inhibition of cell cultures, NK1 receptor immunostaining Group 1 (less than 20% of the cells)
[14] = read-out: Percentage of inhibition of cell cultures, NK1 receptor immunostaining Group 2 (20-80% of the cells)
[15] = read-out: Percentage of inhibition of cell cultures, NK1 receptor immunostaining Group 3 (more than 80% of the cells)
[16] = read-out: Percentage of inhibition of cell cultures, NK1 receptor immunostaining Intensity grade 1
[17] = read-out: Percentage of inhibition of cell cultures, NK1 receptor immunostaining Intensity grade 2
[18] = NK1 receptor immunostaining Group 1 (less than 20% of the cells)
[19] = NK1 receptor immunostaining Group 2 (20-80% of the cells)
[20] = NK1 receptor immunostaining Group 3 (more than 80% of the cells)
[21] = NK1 receptor immunostaining Intensity grade 1
[22] = NK1 receptor immunostaining Intensity grade 2
[23] = NK1 receptor immunostaining Intensity grade 3

C[C@@H](O[C@H]1OCCN(Cc2n[nH]c(=O)[nH]2)[C@H]1c1ccc(F)cc1)c1cc(C(F)(F)F)cc(C(F)(F)F)c1 [Aprepitant]
inhibition at 1 µM (Prostate carcinoma; [13]): 11 ± 3% | inhibition at 1 µM (Prostate carcinoma; [14]): 46 ± 6% | inhibition at 1 µM (Prostate carcinoma; [15]): 95 ± 5% | inhibition at 1 µM (Prostate carcinoma; [16]): 27 ± 5% | inhibition at 1 µM (Prostate carcinoma; [17]): 58 ± 6% | inhibition at 1 µM (Prostate carcinoma; read-out: Percentage of inhibition of cell cultures, NK1 receptor immunostaining Intensity grade 3): 93 ± 7% | inhibition at 100 µM [1]: 22 ± 4% | inhibition at 100 µM [2]: 26 ± 4% | inhibition at 1 µM (Renal cell carcinoma; [18]): 10 ± 3% | inhibition at 1 µM (Renal cell carcinoma; [19]): 45 ± 4% | inhibition at 1 µM (Renal cell carcinoma; [20]): 93 ± 6% | inhibition at 1 µM (Renal cell carcinoma; [21]): 27 ± 6% | inhibition at 1 µM (Renal cell carcinoma; [22]): 57 ± 6% | inhibition at 1 µM (Renal cell carcinoma; [23]): 95 ± 6% | inhibition at 1 µM (Non Hodgkin Lymphoma B; [18]): 10 ± 2% | inhibition at 1 µM (Non Hodgkin Lymphoma B; [19]): 47 ± 4% | inhibition at 1 µM (Non Hodgkin Lymphoma B; [20]): 96 ± 5% | inhibition at 1 µM (Non Hodgkin Lymphoma B; [21]): 27 ± 5% | inhibition at 1 µM (Non Hodgkin Lymphoma B; [22]): 55 ± 5% | inhibition at 1 µM (Non Hodgkin Lymphoma B; [23]): 97 ± 6% | inhibition at 1 µM (Gastric carcinoma; [18]): 10 ± 3% | inhibition at 1 µM (Gastric carcinoma; [19]): 45 ± 3% | inhibition at 1 µM (Gastric carcinoma; [20]): 92 ± 3% | inhibition at 1 µM (Gastric carcinoma; [21]): 25 ± 6% | inhibition at 1 µM (Gastric carcinoma; [22]): 57 ± 5% | inhibition at 1 µM (Gastric carcinoma; [23]): 96 ± 4% | inhibition at 1 µM [3, 18]: 10 ± 2% | inhibition at 1 µM [3, 19]: 42 ± 3% | inhibition at 1 µM [3, 20]: 97 ± 6% | inhibition at 1 µM [3, 21]: 29 ± 6% | inhibition at 1 µM [3, 22]: 56 ± 6% | inhibition at 1 µM [3, 23]: 96 ± 4% | inhibition at 100 µM [4]: 21 ± 2% | inhibition at 1 µM (Fibrosarcoma; [18]): 10 ± 3% | inhibition at 1 µM (Fibrosarcoma; [19]): 48 ± 3% | inhibition at 1 µM (Fibrosarcoma; [20]): 96 ± 5% | inhibition at 1 µM (Fibrosarcoma; [21]): 27 ± 6% | inhibition at 1 µM (Fibrosarcoma; [22]): 54 ± 5% | inhibition at 1 µM (Fibrosarcoma; [23]): 95 ± 5% | inhibition at 1 µM (Neuroblastoma; [18]): 10 ± 3% | inhibition at 1 µM (Neuroblastoma; [19]): 44 ± 5% | inhibition at 1 µM (Neuroblastoma; [20]): 97 ± 5% | inhibition at 1 µM (Neuroblastoma; [21]): 27 ± 6% | inhibition at 1 µM (Neuroblastoma; [22]): 57 ± 6% | inhibition at 1 µM (Neuroblastoma; [23]): 97 ± 5% | inhibition at 100 µM [5]: 22 ± 2% | inhibition at 100 µM [6]: 25 ± 4% | inhibition at 1 µM [7, 18]: 10 ± 3% | inhibition at 1 µM [7, 19]: 47 ± 3% | inhibition at 1 µM [7, 20]: 97 ± 6% | inhibition at 1 µM [7, 21]: 27 ± 6% | inhibition at 1 µM [7, 22]: 56 ± 4% | inhibition at 1 µM (Breast carcinoma; [18]): 11 ± 1% | inhibition at 1 µM (Breast carcinoma; [19]): 46 ± 3% | inhibition at 1 µM (Breast carcinoma; [20]): 94 ± 5% | inhibition at 1 µM (Breast carcinoma; [21]): 28 ± 6% | inhibition at 1 µM (Breast carcinoma; [22]): 58 ± 5% | inhibition at 1 µM (Breast carcinoma; [23]): 95 ± 7% | inhibition at 1 µM (Endometrium carcinoma; [13]): 12 ± 2% | inhibition at 1 µM (Endometrium carcinoma; [14]): 49 ± 2% | inhibition at 1 µM (Endometrium carcinoma; [15]): 95 ± 4% | inhibition at 1 µM (Endometrium carcinoma; [16]): 25 ± 7% | inhibition at 1 µM (Endometrium carcinoma; [17]): 59 ± 5% | Percentage of inhibition of cell cultures [8]: 94±7 percentage | inhibition at 1 µM (Hodgkin lymphoma; [18]): 10 ± 3% | inhibition at 1 µM (Hodgkin lymphoma; [19]): 49 ± 3% | inhibition at 1 µM (Hodgkin lymphoma; [20]): 94 ± 5% | inhibition at 1 µM (Hodgkin lymphoma; [21]): 26 ± 5% | inhibition at 1 µM (Hodgkin lymphoma; [22]): 55 ± 3% | inhibition at 1 µM (Hodgkin lymphoma; [23]): 92 ± 6% | inhibition at 100 µM [9]: 26 ± 5% | inhibition at 1 µM [10, 18]: 10 ± 2% | inhibition at 1 µM [10, 19]: 45 ± 2% | inhibition at 1 µM [10, 20]: 97 ± 5% | inhibition at 1 µM [10, 21]: 26 ± 6% | inhibition at 1 µM [10, 22]: 57 ± 5% | inhibition at 1 µM [10, 23]: 95 ± 5% | inhibition at 100 µM [11]: 24 ± 3% | inhibition at 1 µM (Colon carcinoma; [18]): 11 ± 4% | inhibition at 1 µM (Colon carcinoma; [19]): 44 ± 2% | inhibition at 1 µM (Colon carcinoma; [20]): 95 ± 4% | inhibition at 1 µM (Colon carcinoma; [21]): 26 ± 6% | inhibition at 1 µM (Colon carcinoma; [22]): 56 ± 6% | inhibition at 1 µM (Colon carcinoma; [23]): 95 ± 5% | inhibition at 1 µM (Leukemia B; [18]): 11 ± 2% | inhibition at 1 µM (Leukemia B; [19]): 43 ± 4% | inhibition at 1 µM (Leukemia B; [20]): 95 ± 4% | inhibition at 1 µM (Leukemia B; [21]): 28 ± 5% | inhibition at 1 µM (Leukemia B; [22]): 54 ± 5% | inhibition at 1 µM (Leukemia B; [23]): 95 ± 6% | inhibition at 100 µM [12]: 24 ± 5%
